Assay results: patent US11116736B2, “2-amino-N'-benzylideneacetohydrazides and derivatives for the management of CFTR protein mediated diseases” (Emory University, priority 2015, dated 2021)
Where two headings read alike, the source gives them in different places.

Legend:
WT-hCFTR [1] = biological target: T1, WT-hCFTR (Homo sapiens, UniProt P13569); test: Two-electrode voltage clamp (TEVC) on wildtype hCFTR expressed in Xenopus oocytes; type: cell-based; conditions: for Kd: VM=−60 mV; for Kd / effect on hCFTR current (block / potentiation), in words: ~50 s extracellular exposure
T1 construct: expressed in transfected cells; host or cells: Xenopus laevis oocytes injected with cRNA (pGEMHE construct from Dr. D. Gadsby)
T1 sequence (P13569 whole entry): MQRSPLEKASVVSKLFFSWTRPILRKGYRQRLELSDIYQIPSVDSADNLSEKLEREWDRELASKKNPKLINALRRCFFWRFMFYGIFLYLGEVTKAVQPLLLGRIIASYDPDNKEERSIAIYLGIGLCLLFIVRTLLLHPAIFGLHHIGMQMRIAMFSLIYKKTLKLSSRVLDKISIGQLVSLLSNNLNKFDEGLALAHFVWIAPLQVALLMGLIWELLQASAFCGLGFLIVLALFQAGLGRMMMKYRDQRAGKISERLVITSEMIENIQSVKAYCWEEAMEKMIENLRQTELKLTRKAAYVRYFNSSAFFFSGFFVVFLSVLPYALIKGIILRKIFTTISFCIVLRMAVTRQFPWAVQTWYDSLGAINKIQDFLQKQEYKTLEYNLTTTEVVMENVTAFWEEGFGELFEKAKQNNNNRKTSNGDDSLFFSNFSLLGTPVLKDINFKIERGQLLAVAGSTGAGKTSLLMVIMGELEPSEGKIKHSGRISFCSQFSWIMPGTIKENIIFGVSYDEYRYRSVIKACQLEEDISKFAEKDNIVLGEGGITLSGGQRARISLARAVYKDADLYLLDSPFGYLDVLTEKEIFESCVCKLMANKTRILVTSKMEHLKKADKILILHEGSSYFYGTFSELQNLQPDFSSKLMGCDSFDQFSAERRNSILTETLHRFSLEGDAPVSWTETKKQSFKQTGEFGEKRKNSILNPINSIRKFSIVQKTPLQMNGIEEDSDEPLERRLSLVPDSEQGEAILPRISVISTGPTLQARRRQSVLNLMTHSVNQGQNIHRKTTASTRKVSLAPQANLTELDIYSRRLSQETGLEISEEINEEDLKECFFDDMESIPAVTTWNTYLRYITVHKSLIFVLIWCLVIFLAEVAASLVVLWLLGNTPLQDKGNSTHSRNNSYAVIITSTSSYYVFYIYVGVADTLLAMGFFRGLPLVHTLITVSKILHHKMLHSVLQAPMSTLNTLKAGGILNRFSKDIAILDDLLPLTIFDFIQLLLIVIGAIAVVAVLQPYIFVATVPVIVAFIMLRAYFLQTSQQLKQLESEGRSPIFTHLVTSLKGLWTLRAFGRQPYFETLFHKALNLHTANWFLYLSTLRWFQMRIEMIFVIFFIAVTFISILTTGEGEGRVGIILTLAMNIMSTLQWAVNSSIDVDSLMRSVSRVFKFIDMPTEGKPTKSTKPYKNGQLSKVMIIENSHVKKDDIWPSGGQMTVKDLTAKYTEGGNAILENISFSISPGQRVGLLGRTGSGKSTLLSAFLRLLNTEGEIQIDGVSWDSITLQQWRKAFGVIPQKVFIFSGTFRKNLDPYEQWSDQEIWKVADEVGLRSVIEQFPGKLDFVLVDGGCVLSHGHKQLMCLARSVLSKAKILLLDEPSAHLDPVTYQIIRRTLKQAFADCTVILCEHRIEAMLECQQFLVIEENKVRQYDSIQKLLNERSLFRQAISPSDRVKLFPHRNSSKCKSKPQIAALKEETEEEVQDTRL
Method: The effects of OSSK-2 and OSSK-3 on hCFTR were tested by expression in Xenopus oocytes. Representative current traces using the two-electrode voltage clamp technique (TEVC) are shown in FIGS. 2A and 2B for OSSK-3 and FIG. 2C for OSSK-2.
(§1) Human CFTR cRNAs used in electrophysiology experiments were prepared from constructs encoding WT-hCFTR in the pGEMHE vector (hCFTR/pGEMHE kindly provided by Dr. D. Gadsby, Rockefeller University). The mutants of hCFTR used in this study were prepared using site-directed mutagenesis with the Quikchange protocol (Stratagene, La Jolla, Calif.) and mutant constructs were verified by sequencing across the entire open reading frame before use. Xenopus laevis oocytes were injected with 0.4-10 ng of CFTR cRNAs, and were incubated at 17° C. in modified Liebovitz's L-15 media with the addition of HEPES (pH 7.5), penicillin, and streptomycin. Recordings were made typically 24-96 hours after the injection of cRNAs.
(§2) Standard two-electrode voltage clamp (TEVC) techniques were used to study the effects of chemicals with application of reagents to the extracellular bath. Each oocyte was injected with CFTR cRNA along with cRNA encoding the beta2-adrenergic receptor (β2AR). Electrode resistances measured 0.5-1.4 MΩ when filled with 3 M KCl and measured in standard ND96 bath solution that contained (in mM): 96 NaCl, 2 KCl, 1 MgCl2, and 5 HEPES (pH 7.5). CFTR channels were activated by exposure to 10 μM isoproterenol (ISO) in ND 96 and alternatively assayed in the presence or absence of different concentrations of compounds in the bath solution, typically in the continuing presence of ISO. Currents were acquired with an Axoclamp 900A amplifier and Clampex 10.2 software, and current data were digitized at 2 kHz.

F508del-hCFTR = biological target: T2, F508del-hCFTR (Homo sapiens, UniProt P13569, DEL508-508); test: Two-electrode voltage clamp (TEVC) on F508del-hCFTR expressed in Xenopus oocytes; type: cell-based; conditions: for potentiation of F508del-hCFTR, summary in words: FIGS. 4A and 4B under modified conditions
T2 construct: expressed in transfected cells; host or cells: Xenopus laevis oocytes injected with cRNA; The mutant was made by Quikchange mutagenesis of hCFTR/pGEMHE
T2 sequence (P13569 with tags, fused parts or gaps DEL508-508): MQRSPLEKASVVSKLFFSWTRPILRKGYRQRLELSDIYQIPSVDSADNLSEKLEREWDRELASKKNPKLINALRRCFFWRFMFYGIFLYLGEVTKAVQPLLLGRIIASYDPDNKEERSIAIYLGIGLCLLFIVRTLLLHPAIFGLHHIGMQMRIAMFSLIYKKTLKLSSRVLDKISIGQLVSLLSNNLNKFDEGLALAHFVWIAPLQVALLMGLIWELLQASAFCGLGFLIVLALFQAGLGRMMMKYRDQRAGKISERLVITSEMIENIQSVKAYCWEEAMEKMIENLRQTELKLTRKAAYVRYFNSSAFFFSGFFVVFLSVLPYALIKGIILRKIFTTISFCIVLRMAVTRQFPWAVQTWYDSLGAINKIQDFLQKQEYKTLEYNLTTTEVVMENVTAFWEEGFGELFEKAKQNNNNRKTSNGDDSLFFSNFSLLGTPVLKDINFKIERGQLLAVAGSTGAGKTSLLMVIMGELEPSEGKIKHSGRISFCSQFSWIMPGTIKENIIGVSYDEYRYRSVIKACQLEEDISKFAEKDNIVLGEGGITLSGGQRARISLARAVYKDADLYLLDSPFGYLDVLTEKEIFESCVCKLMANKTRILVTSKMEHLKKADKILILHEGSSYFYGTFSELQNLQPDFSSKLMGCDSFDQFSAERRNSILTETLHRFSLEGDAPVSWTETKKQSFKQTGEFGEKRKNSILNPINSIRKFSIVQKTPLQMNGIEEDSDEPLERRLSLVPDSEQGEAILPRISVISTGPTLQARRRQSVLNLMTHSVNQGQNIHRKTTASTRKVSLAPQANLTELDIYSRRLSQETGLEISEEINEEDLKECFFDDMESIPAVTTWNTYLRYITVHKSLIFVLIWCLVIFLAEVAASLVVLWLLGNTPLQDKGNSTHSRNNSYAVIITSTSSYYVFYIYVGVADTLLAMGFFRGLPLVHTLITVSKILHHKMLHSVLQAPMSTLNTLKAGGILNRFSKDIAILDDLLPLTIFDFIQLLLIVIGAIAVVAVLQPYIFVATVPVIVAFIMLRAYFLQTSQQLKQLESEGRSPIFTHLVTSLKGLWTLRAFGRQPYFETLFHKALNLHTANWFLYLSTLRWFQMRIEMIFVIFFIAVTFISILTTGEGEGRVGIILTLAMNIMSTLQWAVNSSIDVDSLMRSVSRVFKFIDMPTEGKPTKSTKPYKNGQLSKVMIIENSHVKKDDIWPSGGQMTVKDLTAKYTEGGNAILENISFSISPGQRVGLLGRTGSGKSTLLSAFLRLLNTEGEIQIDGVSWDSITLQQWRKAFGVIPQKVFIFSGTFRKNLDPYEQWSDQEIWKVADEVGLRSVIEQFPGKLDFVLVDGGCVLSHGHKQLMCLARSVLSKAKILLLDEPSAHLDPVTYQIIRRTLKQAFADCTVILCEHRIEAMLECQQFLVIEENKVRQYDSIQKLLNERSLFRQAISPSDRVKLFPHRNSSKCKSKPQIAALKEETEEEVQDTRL
Method: Nearly 90% of CF patients in the United States bear at least one F508del-CFTR allele; OSSK-3, and OSSK-2 were studied on F508del-hCFTR using the TEVC technique at VM=−60 mV.
as §1, §2

WT-hCFTR [2] = biological target: T1, WT-hCFTR; conditions: cited from earlier work
multiple CFTR mutations = conditions: cited from earlier work

Row | potentiation of WT-hCFTR, summary in words (WT-hCFTR [1]) | Kd (WT-hCFTR [1]; read-out: apparent Kd for block of hCFTR) | Kd (WT-hCFTR [1]; read-out: apparent Kd for potentiation of hCFTR) | potentiation of F508del-hCFTR, summary in words (F508del-hCFTR) | SMILES | effect on hCFTR current (block / potentiation), in words (WT-hCFTR [1]) | effect on F508del-hCFTR current (block / potentiation), in words (F508del-hCFTR; VM=−60 mV, 5 μM, ~50 s extracellular exposure) | potentiation of WT-hCFTR, in words (WT-hCFTR [2]) | potentiation of mutant CFTR, in words (multiple CFTR mutations)
1 | mildly potentiate WT-hCFTR | 33 µM | 0.0317 µM | very strongly potentiate F508del-hCFTR | Cc1ccc(NCC(=O)N/N=C/c2cc(Br)c(O)c(Br)c2O)cc1 [OSSK-3, (E)-N′-(3,5-dibromo-2,4-dihydroxybenzylidene)-2-(p-tolylamino)acetohydrazide] | both block as well as potentiation of hCFTR | very weak initial block that was followed by significantly stronger potentiation compared to the potentiation of WT-hCFTR | – | –
2 | – | – | – | – | CC(C)(C)c1cc(C(C)(C)C)c(NC(=O)c2c[nH]c3ccccc3c2=O)cc1O [VX-770, ivacaftor] | – | – | only mildly potentiates WT-hCFTR | strongly potentiates multiple CFTR mutations
3 | mildly potentiate WT-hCFTR | – | – | very strongly potentiate F508del-hCFTR | Cc1cccc(NCC(=O)N/N=C/c2cc(Br)c(O)c(Br)c2O)c1 [OSSK-2, (E)-N′-(3,5-dibromo-2,4-dihydroxybenzylidene)-2-(m-tolylamino)acetohydrazide] | very weak block on hCFTR without obvious potentiation | – | – | –
